For the test, the target named is T1, hPD-1/hPD-L1 (Homo sapiens, UniProt Q9NZQ7).
T1 construct: purchased CISBIO
As to the kind of experiment: PD-1/PD-L1 binding assay kit (CISBIO), HTRF assay of PD-1/PD-L1 protein-protein interaction. Particulars: for inhibitory activity of PD-1/PD-L1 protein-protein interaction compared with BMS-202: HTRF, comparison with BMS-202. The method, then:
Experimental objective: the activity of the compounds of formula (I) to inhibit the PD-1/PD-L1 interaction was tested by using a PD-1/PD-L1 binding assay kit (CISBIO).
Experimental principle: HTRF (Homogeneous Time-Resolved Fluorescence) is a technique used to detect substances to be tested in pure liquid phase systems. It primarily utilizes energy transfer of two fluorescent groups, which are divided into an energy donor europium (Eu^+) and an energy acceptor. When the donor is externally excited (e.g., a flash lamp or laser), the energy can be resonantly transferred to the acceptor if the donor is close enough to the acceptor, and the acceptor is excited at a specific wavelength. By using the HTRF technology, the assay enables simple and rapid characterization of compounds and antibody blockers in a high-throughput format. By using anti-Tag1 labeled with Eu^+ (Europium) (the HTRF energy donor) and anti-Tag2 labeled with XL665 (the HTRF energy acceptor), the interaction between PD-L1 and PD-1 can be detected. PD-L1 protein and PD-1 protein are labeled with Tag1 and Tag2, respectively, and Eu^+ and XL665 bind to PD-L1 and PD-1, respectively, through antibodies to form complexes. […] This specific signal is directly proportional to the degree of PD1/PD-L1 interaction.
Experimental materials: kit: PD-1/PD-L1 binding assay kits purchased from CISBIO; and 96-well plate: purchased from CISBIO.
Test instrument: Perkin Elmer, model: EnVision.
Test compounds: the compounds in formula (I).
Experimental procedure: PD-1/PD-L1 binding assay kits were used. […] The plates were sealed by using microplate sealers, centrifuging was performed at 1000 rpm for 1 min, and incubation was performed at room temperature for 15 min. The Anti-Tag-Eu^3+ and Anti-tag-XL665 which were diluted with Buffer were then mixed in equal volumes, then 10 µL of the mixed solution was added to each well, the sealed plates were centrifuged at 1000 rpm for 1 min, and incubation was performed at room temperature for 2 h. […] IC50 of the compounds was calculated by using Graphpad.

T1 sequence (Q9NZQ7 19-238 limits assumed): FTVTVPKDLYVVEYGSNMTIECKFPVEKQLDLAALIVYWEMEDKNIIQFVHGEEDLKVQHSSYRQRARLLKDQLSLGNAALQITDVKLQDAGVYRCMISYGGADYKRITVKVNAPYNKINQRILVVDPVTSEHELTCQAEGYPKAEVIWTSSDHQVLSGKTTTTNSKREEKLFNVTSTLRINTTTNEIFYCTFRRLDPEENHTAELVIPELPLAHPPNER

With `Cc1c(-c2ccc3c(c2)CN(CC(=O)O)C3=O)cccc1-c1ccccc1F` [I-A-4, 2-(5-(2'-Fluoro-2-methyl-[1,1'-biphenyl]-3-yl)-1-oxoisoindolin-2-yl)acetic acid], the half-maximal inhibitory concentration (IC50) was greater than 1000 nM.
`Cc1c(-c2ccc3c(c2)CN(CCC(=O)O)C3=O)cccc1-c1ccccc1F` [I-A-5, 3-(5-(2'-Fluoro-2-methyl-[1,1'-biphenyl]-3-yl)-1-oxoisoindolin-2-yl)propanoic acid] had a concentration for half-maximal inhibition (IC50) greater than 1000 nM.
The same measure, in the same setting: next, `Cc1c(-c2ccc3c(c2)CN(C(C)C(=O)O)C3=O)cccc1-c1ccccc1F` (centres unmarked) [I-A-6, 2-(5-(2'-Fluoro-2-methyl-[1,1'-biphenyl]-3-yl)-1-oxoisoindolin-2-yl)propanoic acid]: greater than 1000 nM; `Cc1c(-c2ccc3c(c2)CN(CCO)C3=O)cccc1-c1ccccc1F` [I-A-7, 5-(2'-Fluoro-2-methyl-[1,1'-biphenyl]-3-yl)-2-(2-hydroxyethyl)isoindo 1-1-one]: 70 to 1000 nM.
As to `Cc1c(-c2ccc3c(c2)CN(CC(N)=O)C3=O)cccc1-c1ccccc1F` [I-A-8, 2-(5-(2'-Fluoro-2-methyl-[1,1'-biphenyl]-3-yl)-1-oxoisoindolin-2-yl)acetamide], the IC50 was 70 to 1000 nM.
Take `Cc1c(-c2ccc3c(c2)CN(CCO)C3)cccc1-c1ccccc1F` [I-A-9, 2-(5-(2'-Fluoro-2-methyl-[1,1'-biphenyl]-3-yl)isoindolin-2-yl)ethan-1-ol]: the IC50 came to 11 nM and the “inhibitory activity of PD-1/PD-L1 protein-protein interaction compared with BMS-202” value (“inhibitory activity … compared with BMS-202” below) is on record as “superior to that of the compound BMS-202”.
Take `Cc1c(-c2ccc3c(n2)CCN(CC(=O)O)C3)cccc1-c1ccccc1F` [I-B-2, 2-(2-(2'-Fluoro-2-methyl-[1,1'-biphenyl]-3-yl)-7,8-dihydro-1,6-naphthyridin-6(5H)-yl)acetic acid]: the IC50 was found to be 19 nM and the “inhibitory activity … compared with BMS-202” value is “superior to that of the compound BMS-202”.
Compound `Cc1c(-c2ccc3c(n2)CCN(CCO)C3)cccc1-c1ccccc1F` [I-B-3, 2-(2-(2'-Fluoro-2-methyl-[1,1'-biphenyl]-3-yl)-7,8-dihydro-1,6-naphthyridin-6(5H)-yl)ethan-1-ol] displayed an IC50 of 70 to 1000 nM.
As for `Cc1c(COc2ccc3c(n2)CCN(CC(=O)O)C3)cccc1-c1ccccc1F` [I-D-13, 2-(2-((2'-fluoro-2-methyl-[1,1'-biphenyl]-3-yl)methoxy)-7,8-dihydro-1,6-naphthyridin-6(5H)-yl)acetic acid], the IC50 was 23 nM and the “inhibitory activity … compared with BMS-202” value is given as “superior to that of the compound BMS-202”.
Turning to `Cc1c(COc2ccc3c(n2)CCN(CCO)C3)cccc1-c1ccccc1F` [I-D-14, 2-(2-((2'-fluoro-2-methyl-[1,1'-biphenyl]-3-yl)methoxy)-7,8-dihydro-1,6-naphthyridin-6(5H)-yl)ethan-1-ol], the IC50 came to 15.8 nM and the “inhibitory activity … compared with BMS-202” value was “superior to that of the compound BMS-202”.
For `Cc1ccccc1-c1cccc(COc2ccc3c(n2)CCN(CCO)C3)c1C` [I-D-15, 2-(2-((2,2'-dimethyl-[1,1'-biphenyl]-3-yl)methoxy)-7,8-dihydro-1,6-naphthyridin-6(5H)-yl)ethan-1-ol], the IC50 lay within 70 to 1000 nM.
The same measure, in the same setting: next, `Cc1c(COc2ccc3c(n2)CCN(CCO)C3)cccc1-c1ccccc1Cl` [I-D-16, 2-(2-((2'-chloro-2-methyl-[1,1'-biphenyl]-3-yl)methoxy)-7,8-dihydro-1,6-naphthyridin-6(5H)-yl)ethan-1-ol]: 70 to 1000 nM; `Cc1c(COc2ccc3c(n2)CCN(CCO)C3)cccc1-c1ccccc1` [I-D-17, 2-(2-((2-methyl-[1,1'-biphenyl]-3-yl)methoxy)-7,8-dihydro-1,6-naphthyridin-6(5H)-yl)ethan-1-ol]: 70 to 1000 nM.

As a reminder, the IC50 is the midpoint of a concentration-inhibition curve. Higher therefore signals weaker potency.

Source of the values: patent EP4556465A1, “NOVEL BICYCLIC PD-L1 INHIBITORS, PREPARATION METHODS THEREFOR AND MEDICINAL USES THEREOF” (priority 2022, dated 2024).
